Results taken from patent US11471456B2, “Formulations comprising heterocyclic protein kinase inhibitors” (Sumitomo Pharma Oncology, Inc., priority 2019, dated 2022).
In brackets after ≈: the same amount, converted by molar mass. Like-named read-outs stand apart in the source and are kept apart here. Blank lines part the entries; values can stand above or below the compound they belong to.

Key:
[1] = DVS (hygroscopicity) of free base and salts; format: physicochemical
[2] = Oral bioavailability of the compound of structure (I) in rats with different excipients; format: in vivo; settings: for bioavailability: rat, in vivo, po
[3] = Phase 1 first-in-human escalating dose study in patients with advanced solid tumors; format: in vivo
Procedure: The study is currently enrolling Cohort 3 at a dose level of 1080 mg qd.

[4] = HPLC solubility in SGF, FaSSIF, FeSSIF at 37° C.; format: physicochemical; settings: thermodynamic from solid
Procedure: HPLC Method. The chromatographic conditions for HPLC are summarized below.
The samples were then centrifuged and filtered. Saturated solutions were diluted with MeOH:H2O=1:2 (v:v), and the concentrations were determined by HPLC. The final pH of the saturated solutions was tested.

SMILES: CC(C)(O)C1CCC(Nc2ccc3ncc(-c4cccc(C(F)(F)F)c4)n3n2)CC1.Cl [Hydrochloric acid salt, 2-((1R,4R)-4-((3-(3-(trifluoromethyl)phenyl)imidazo[1,2-b]pyridazin-6-yl)amino)cyclohexyl)propan-2-ol hydrochloride]
DVS (weight gain, %) [1]: 2.83% | hygroscopicity by DVS compared with methanesulfonic acid salt [1]: much lower hygroscopicity

Oral Bioavailability (% F) ([2]; Dry Powder (capsule), administered alone): poor bioavailability | bioavailability ([2]; Dry Powder (capsule), administered alone, read-out: Oral Bioavailability (% F)): 0% | bioavailability ([2]; excipient 10% EtOH/10% PEG300/20% HS15, read-out: Oral Bioavailability (% F)): 38% | bioavailability ([2]; excipient 10% EtOH/40% PG, read-out: Oral Bioavailability (% F)): 2% | bioavailability ([2]; excipient 10% PS-20, read-out: Oral Bioavailability (% F)): 39% | bioavailability ([2]; excipient 10% PS-20/50% PEG400, read-out: Oral Bioavailability (% F)): 15% | bioavailability ([2]; excipient Corn Oil, read-out: Oral Bioavailability (% F)): 0% | bioavailability ([2]; excipient HPβCD, read-out: Oral Bioavailability (% F)): 11% | DVS (weight gain, %) [1]: 1.60% | hygroscopicity by DVS compared with methanesulfonic acid salt [1]: much lower hygroscopicity | solubility at 0.5 h ([4]; simulated gastric fluid, SGF): 1360 µg/mL (≈ 3250 µM) | solubility at 2 h ([4]; simulated gastric fluid, SGF): 1270 µg/mL (≈ 3030 µM) | solubility at 24 h ([4]; simulated gastric fluid, SGF): 903 µg/mL (≈ 2160 µM) | solubility at 0.5 h ([4]; FaSSIF): 10.4 µg/mL (≈ 24.9 µM) | solubility at 2 h ([4]; FaSSIF): 9.81 µg/mL (≈ 23.4 µM) | solubility at 24 h ([4]; FaSSIF): 7.91 µg/mL (≈ 18.9 µM) | solubility at 0.5 h ([4]; FeSSIF): 96.8 µg/mL (≈ 231 µM) | solubility at 24 h ([4]; FeSSIF): 91.5 µg/mL (≈ 219 µM)
SMILES: CC(C)(O)[C@H]1CC[C@H](Nc2ccc3ncc(-c4cccc(C(F)(F)F)c4)n3n2)CC1 [compound of structure (I), 2-((1R,4R)-4-((3-(3-(trifluoromethyl)phenyl)imidazo[1,2-b]pyridazin-6-yl)amino)cyclohexyl)propan-2-ol]
changes in hematological parameters including platelets, WBC counts and hemoglobin ([3]; 480 mg qd and 720 mg qd cohorts (3 patients each), first cycle, preliminary data): no marked changes in hematological parameters | side effects, regardless of causality, occurring with a frequency equal to 2 or greater ([3]; 480 mg qd and 720 mg qd cohorts, preliminary data): diarrhea, nausea and vomiting | severity of the side effect events ([3]; all Grade 1, except one event that was Grade 2): mild in severity
